Laboratory results published in PubChem BioAssay (NCI).
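In this assay, cells in 96-well plates receive the compound at five concentrations for 48 hours. Endpoints are linearly interpolated between the surrounding concentrations. GI50 is the concentration that inhibits growth by half. TGI: concentration producing complete growth inhibition.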

Assays:
Test in all cases: growth of human tumour cells (NCI), 48 h
OVCAR-4 ovarian = system: OVCAR-4 ovarian
OVCAR-5 ovarian = system: OVCAR-5 ovarian
CCRF-CEM leukemia = system: CCRF-CEM leukemia
LOX IMVI melanoma = system: LOX IMVI melanoma
MCF7 breast = system: MCF7 breast
BT-549 breast = system: BT-549 breast
RPMI-8226 leukemia = system: RPMI-8226 leukemia
UACC-257 melanoma = system: UACC-257 melanoma
SW-620 colon = system: SW-620 colon
SN12C renal = system: SN12C renal

With `COc1cc2c(cc1OC)[C@H]1C(=O)c3cc4c(cc3[C@H]1N(C)C2=O)OCO4` the TGI (OVCAR-4 ovarian) was over 100 µM, the TGI (OVCAR-5 ovarian) was over 100 µM and the TGI (CCRF-CEM leukemia) was 17 µM. It also gave a TGI (LOX IMVI melanoma) of over 40.8 µM, a TGI (MCF7 breast) of over 100 µM and a TGI (BT-549 breast) of over 100 µM. The TGI (RPMI-8226 leukemia) was over 100 µM, the TGI (UACC-257 melanoma) was over 100 µM and the TGI (SW-620 colon) was over 100 µM. For the same compound, the TGI (SN12C renal) was over 100 µM.

`Cc1cc2c(cc1Cl)SC1=NN(C)C(c3ccccc3O)N1S2(=O)=O` (centres undefined) showed a GI50 (OVCAR-4 ovarian) of 51.5 µM, a TGI (OVCAR-4 ovarian) of over 100 µM and a GI50 (OVCAR-5 ovarian) of 60 µM. For the same compound, the TGI (OVCAR-5 ovarian) was over 100 µM, the GI50 (CCRF-CEM leukemia) was 75.4 µM and the TGI (CCRF-CEM leukemia) was over 100 µM. It also gave a GI50 (LOX IMVI melanoma) of 40.5 µM, a TGI (LOX IMVI melanoma) of over 100 µM and a GI50 (MCF7 breast) of over 100 µM. For the same compound, the TGI (MCF7 breast) was over 100 µM, the GI50 (BT-549 breast) was 95.2 µM and the TGI (BT-549 breast) was over 100 µM. It also gave a GI50 (RPMI-8226 leukemia) of over 100 µM, a TGI (RPMI-8226 leukemia) of over 100 µM and a GI50 (UACC-257 melanoma) of over 100 µM. For the same compound, the TGI (UACC-257 melanoma) was over 100 µM, the GI50 (SW-620 colon) was 94.5 µM and the TGI (SW-620 colon) was over 100 µM. For the same compound, the GI50 (SN12C renal) was 58.7 µM and the TGI (SN12C renal) was over 100 µM.

For `CN1CCN(C(=S)SCN2C(=O)c3ccccc3S2(=O)=O)CC1`, the GI50 (OVCAR-4 ovarian) was 23.2 µM, the TGI (OVCAR-4 ovarian) was 72.3 µM and the GI50 (OVCAR-5 ovarian) was 30.2 µM. For the same compound, the TGI (OVCAR-5 ovarian) was over 100 µM, the GI50 (CCRF-CEM leukemia) was 2.23 µM and the GI50 (LOX IMVI melanoma) was 11.6 µM. The TGI (LOX IMVI melanoma) was 36.9 µM, the GI50 (MCF7 breast) was 8.29 µM and the TGI (MCF7 breast) was over 100 µM. For the same compound, the GI50 (BT-549 breast) was over 100 µM, the TGI (BT-549 breast) was over 100 µM and the GI50 (RPMI-8226 leukemia) was 2.22 µM. For the same compound, the TGI (RPMI-8226 leukemia) was 6.87 µM, the GI50 (UACC-257 melanoma) was 63.9 µM and the TGI (UACC-257 melanoma) was over 100 µM. It also gave a GI50 (SW-620 colon) of 9.31 µM, a TGI (SW-620 colon) of 74.9 µM and a GI50 (SN12C renal) of 52.5 µM. It also gave a TGI (SN12C renal) of over 100 µM.

`Cc1ccc(OCCCCCCNCCO)c(C)c1` showed a GI50 (OVCAR-4 ovarian) of 13.6 µM, a TGI (OVCAR-4 ovarian) of 28.8 µM and a GI50 (OVCAR-5 ovarian) of 13.7 µM. It also gave a TGI (OVCAR-5 ovarian) of 28 µM, a GI50 (CCRF-CEM leukemia) of 15.6 µM and a TGI (CCRF-CEM leukemia) of 36.7 µM. It also gave a GI50 (LOX IMVI melanoma) of 15 µM, a TGI (LOX IMVI melanoma) of 29.7 µM and a GI50 (MCF7 breast) of 13.9 µM. For the same compound, the TGI (MCF7 breast) was 28.7 µM, the GI50 (BT-549 breast) was 13.5 µM and the TGI (BT-549 breast) was 28 µM. The GI50 (RPMI-8226 leukemia) was 15.5 µM, the TGI (RPMI-8226 leukemia) was 37.9 µM and the GI50 (UACC-257 melanoma) was 14.2 µM. For the same compound, the TGI (UACC-257 melanoma) was 29.6 µM, the GI50 (SW-620 colon) was 16.3 µM and the TGI (SW-620 colon) was 33 µM. For the same compound, the GI50 (SN12C renal) was 12.7 µM and the TGI (SN12C renal) was 26.9 µM.

For `CN1CC(C(=O)NC2(C)OC3(O)C4CCCN4C(=O)C(Cc4ccccc4)N3C2=O)C=C2c3cccc4[nH]cc(c34)CC21` (centres undefined), the TGI (OVCAR-4 ovarian) was over 100 µM, the TGI (OVCAR-5 ovarian) was 44.9 µM and the TGI (CCRF-CEM leukemia) was over 100 µM. The TGI (LOX IMVI melanoma) was 35.9 µM, the TGI (MCF7 breast) was over 100 µM and the TGI (BT-549 breast) was 43 µM. The TGI (RPMI-8226 leukemia) was over 100 µM, the TGI (UACC-257 melanoma) was 29.8 µM and the TGI (SW-620 colon) was over 100 µM. The TGI (SN12C renal) was 43.5 µM.

`O=c1[nH]c2cc(O)ccc2n2cc3c(F)cccc3c12` gave a GI50 (OVCAR-4 ovarian) of over 100 µM, a TGI (OVCAR-4 ovarian) of over 100 µM and a GI50 (OVCAR-5 ovarian) of over 31.3 µM. The TGI (OVCAR-5 ovarian) was over 100 µM, the GI50 (CCRF-CEM leukemia) was 2.68 µM and the TGI (CCRF-CEM leukemia) was over 100 µM. For the same compound, the GI50 (LOX IMVI melanoma) was 0.748 µM, the TGI (LOX IMVI melanoma) was over 100 µM and the GI50 (MCF7 breast) was 0.936 µM. It also gave a TGI (MCF7 breast) of over 100 µM, a GI50 (BT-549 breast) of over 100 µM and a TGI (BT-549 breast) of over 100 µM. For the same compound, the GI50 (RPMI-8226 leukemia) was 4.38 µM, the TGI (RPMI-8226 leukemia) was over 100 µM and the GI50 (UACC-257 melanoma) was 31.9 µM. It also gave a TGI (UACC-257 melanoma) of over 100 µM, a GI50 (SW-620 colon) of 0.477 µM and a TGI (SW-620 colon) of over 100 µM. It also gave a GI50 (SN12C renal) of 2.57 µM and a TGI (SN12C renal) of over 100 µM.

`O=[N+]([O-])c1cccc(-c2ncc(-c3ccc(Cl)cc3Cl)[nH]2)c1` was tested, and the GI50 (OVCAR-4 ovarian) was 3.18 µM, the TGI (OVCAR-4 ovarian) was 12.1 µM and the GI50 (OVCAR-5 ovarian) was 8.07 µM. It also gave a TGI (OVCAR-5 ovarian) of 23.1 µM, a GI50 (CCRF-CEM leukemia) of 1.49 µM and a TGI (CCRF-CEM leukemia) of 4.48 µM. It also gave a GI50 (LOX IMVI melanoma) of 3.35 µM, a TGI (LOX IMVI melanoma) of 8.55 µM and a GI50 (MCF7 breast) of 1.14 µM. For the same compound, the TGI (MCF7 breast) was 3.57 µM, the GI50 (BT-549 breast) was 3.05 µM and the TGI (BT-549 breast) was 8.07 µM. For the same compound, the GI50 (RPMI-8226 leukemia) was 1.08 µM, the TGI (RPMI-8226 leukemia) was 4.68 µM and the GI50 (UACC-257 melanoma) was 9.7 µM. It also gave a TGI (UACC-257 melanoma) of 29 µM, a GI50 (SW-620 colon) of 1.6 µM and a TGI (SW-620 colon) of 3.16 µM. It also gave a GI50 (SN12C renal) of 6.01 µM and a TGI (SN12C renal) of 12.6 µM.
